target: LSD-1 enzyme (Homo sapiens (Human), UniProt O60341); assay: LANCE LSD1/KDM1A demethylase assay (LSD1 histone demethylase biochemical assay); conditions: 1 nM LSD-1 enzyme, 1 hour preincubation at 25° C., 0.4 μM biotin-labeled Histone H3 peptide substrate
Method: LANCE LSD1/KDM1A demethylase assay—10 μL of 1 nM LSD-1 enzyme (ENZO BML-SE544-0050) in the assay buffer (50 mM Tris, pH 7.5, 0.01% Tween-20, 25 mM NaCl, 5 mM DTT) were preincubated for 1 hour at 25° C. with 0.8 μL compound/DMSO dotted in black 384 well polystyrene plates. […] After stopping the reactions plates were incubated for 30 minutes and read on a PHERAstar FS plate reader (BMG Labtech).

SMILES | IC50 [nM]
N#CCC1(N2CCC(N[C@@H]3C[C@H]3c3ccccc3)CC2)CN(C(=O)c2cn[nH]c2)C1 [Example 112, [3-(4-{[(1R,2S)-2-phenylcyclopropyl]amino}piperidin-1-yl)-1-(1H-pyrazol-4-ylcarbonyl)azetidin-3-yl]acetonitrile] | ≤ 100
N#CCC1(N2CCC(N[C@@H]3C[C@H]3c3ccccc3)CC2)CN(C(=O)c2ccn[nH]2)C1 [Example 113, [3-(4-{[(1R,2S)-2-phenylcyclopropyl]amino}piperidin-1-yl)-1-(1H-pyrazol-5-ylcarbonyl)azetidin-3-yl]acetonitrile] | ≤ 100
N#CCC1(N2CCC(N[C@@H]3C[C@H]3c3ccccc3)CC2)CN(C(=O)[C@@H]2CCOC2)C1 [Example 114, {3-(4-{[(1R,2S)-2-phenylcyclopropyl]amino}piperidin-1-yl)-1-[(3R)-tetrahydrofuran-3-ylcarbonyl]azetidin-3-yl}acetonitrile] | ≤ 100
N#CCC1(N2CCC(N[C@@H]3C[C@H]3c3ccccc3)CC2)CN(C(=O)[C@H]2CCOC2)C1 [Example 115, {3-(4-{[(1R,2S)-2-phenylcyclopropyl]amino}piperidin-1-yl)-1-[(3S)-tetrahydrofuran-3-ylcarbonyl]azetidin-3-yl}acetonitrile] | ≤ 100
N#CCC1(N2CCC(N[C@@H]3C[C@H]3c3ccccc3)CC2)CN(C(=O)[C@@H]2CCCO2)C1 [Example 116, {3-(4-{[(1R,2S)-2-phenylcyclopropyl]amino}piperidin-1-yl)-1-[(2S)-tetrahydrofuran-2-ylcarbonyl]azetidin-3-yl}acetonitrile] | ≤ 100
N#CCC1(N2CCC(N[C@@H]3C[C@H]3c3ccccc3)CC2)CN(C(=O)[C@H]2CCCO2)C1 [Example 117, {3-(4-{[(1R,2S)-2-phenylcyclopropyl]amino}piperidin-1-yl)-1-[(2R)-tetrahydrofuran-2-ylcarbonyl]azetidin-3-yl}acetonitrile] | ≤ 100
N#CCC1(N2CCC(N[C@@H]3C[C@H]3c3ccccc3)CC2)CN(C(=O)Cc2ccccn2)C1 [Example 118, [3-(4-{[(1R,2S)-2-phenylcyclopropyl]amino}piperidin-1-yl)-1-(pyridin-2-ylacetyl)azetidin-3-yl]acetonitrile] | ≤ 100
N#CCC1(N2CCC(N[C@@H]3C[C@H]3c3ccccc3)CC2)CN(C(=O)c2cscn2)C1 [Example 119, [3-(4-{[(1R,2S)-2-phenylcyclopropyl]amino}piperidin-1-yl)-1-(1,3-thiazol-4-ylcarbonyl)azetidin-3-yl]acetonitrile] | ≤ 100
N#CCC1(N2CCC(N[C@@H]3C[C@H]3c3ccccc3)CC2)CN(C(=O)c2nccs2)C1 [Example 120, [3-(4-{[(1R,2S)-2-phenylcyclopropyl]amino}piperidin-1-yl)-1-(1,3-thiazol-2-ylcarbonyl)azetidin-3-yl]acetonitrile] | ≤ 100
CN(C)C(=O)CC1(N2CCC(N[C@@H]3C[C@H]3c3ccccc3)CC2)CN(C2CCOCC2)C1 [Example 121, N,N-dimethyl-2-[3-(4-{[(1R,2S)-2-phenylcyclopropyl]amino}piperidin-1-yl)-1-(tetrahydro-2H-pyran-4-yl)azetidin-3-yl]acetamide] | ≤ 100
CNC(=O)CC1(N2CCC(N[C@@H]3C[C@H]3c3ccccc3)CC2)CN(C2CCOCC2)C1 [Example 122, N-methyl-2-[3-(4-{[(1R,2S)-2-phenylcyclopropyl]amino}piperidin-1-yl)-1-(tetrahydro-2H-pyran-4-yl)azetidin-3-yl]acetamide] | ≤ 100
CN(C)C(=O)CC1(N2CCC(N[C@@H]3C[C@H]3c3ccccc3)CC2)CN(CC2CC2)C1 [Example 123, 2-[1-(cyclopropylmethyl)-3-(4-{[(1R,2S)-2-phenylcyclopropyl]amino}piperidin-1-yl)azetidin-3-yl]-N,N-dimethylacetamide] | ≤ 100
CNC(=O)CC1(N2CCC(N[C@@H]3C[C@H]3c3ccccc3)CC2)CN(CC2CC2)C1 [Example 124, 2-[1-(cyclopropylmethyl)-3-(4-{[(1R,2S)-2-phenylcyclopropyl]amino}piperidin-1-yl)azetidin-3-yl]-N-methylacetamide] | ≤ 100
O=C(O)CC1(N2CCC(N[C@@H]3C[C@H]3c3ccccc3)CC2)CN(Cc2ncccn2)C1 [Example 125, [3-(4-{[(1R,2S)-2-phenylcyclopropyl]amino}piperidin-1-yl)-1-(pyrimidin-2-ylmethyl)azetidin-3-yl]acetic acid] | ≤ 100
O=C(O)CC1(N2CCC(N[C@@H]3C[C@H]3c3ccccc3)CC2)CN(Cc2cncnc2)C1 [Example 126, [3-(4-{[(1R,2S)-2-phenylcyclopropyl]amino}piperidin-1-yl)-1-(pyrimidin-5-ylmethyl)azetidin-3-yl]acetic acid] | ≤ 100
O=C(O)CC1(N2CCC(N[C@@H]3C[C@H]3c3ccccc3)CC2)CN(Cc2cscn2)C1 [Example 127, [3-(4-{[(1R,2S)-2-phenylcyclopropyl]amino}piperidin-1-yl)-1-(1,3-thiazol-4-ylmethyl)azetidin-3-yl]acetic acid] | ≤ 100
O=C(O)CC1(N2CCC(N[C@@H]3C[C@H]3c3ccccc3)CC2)CN(Cc2cncs2)C1 [Example 128, [3-(4-{[(1R,2S)-2-phenylcyclopropyl]amino}piperidin-1-yl)-1-(1,3-thiazol-5-ylmethyl)azetidin-3-yl]acetic acid] | ≤ 100
O=C(O)CC1(N2CCC(N[C@@H]3C[C@H]3c3ccccc3)CC2)CN(Cc2nccs2)C1 [Example 129, [3-(4-{[(1R,2S)-2-phenylcyclopropyl]amino}piperidin-1-yl)-1-(1,3-thiazol-2-ylmethyl)azetidin-3-yl]acetic acid] | ≤ 100
O=C(O)CC1(N2CCC(N[C@@H]3C[C@H]3c3ccccc3)CC2)CN(CCC(F)(F)F)C1 [Example 130, [3-(4-{[(1R,2S)-2-phenylcyclopropyl]amino}piperidin-1-yl)-1-(3,3,3-trifluoropropyl)azetidin-3-yl]acetic acid] | ≤ 100
